Results published in ChEMBL document CHEMBL5465560, “Selectivity Literature for EUbOPEN Chemogenomic Library” (2024).

What was measured:
[1] = target: T1, Atypical kinase COQ8B, mitochondrial (Homo sapiens) (UniProt Q96D53); assay: Selectivity interaction (KinomeScan (DiscoverX)) EUB0001079a ADCK4; settings: at 1 µM
T1 sequence (whole entry): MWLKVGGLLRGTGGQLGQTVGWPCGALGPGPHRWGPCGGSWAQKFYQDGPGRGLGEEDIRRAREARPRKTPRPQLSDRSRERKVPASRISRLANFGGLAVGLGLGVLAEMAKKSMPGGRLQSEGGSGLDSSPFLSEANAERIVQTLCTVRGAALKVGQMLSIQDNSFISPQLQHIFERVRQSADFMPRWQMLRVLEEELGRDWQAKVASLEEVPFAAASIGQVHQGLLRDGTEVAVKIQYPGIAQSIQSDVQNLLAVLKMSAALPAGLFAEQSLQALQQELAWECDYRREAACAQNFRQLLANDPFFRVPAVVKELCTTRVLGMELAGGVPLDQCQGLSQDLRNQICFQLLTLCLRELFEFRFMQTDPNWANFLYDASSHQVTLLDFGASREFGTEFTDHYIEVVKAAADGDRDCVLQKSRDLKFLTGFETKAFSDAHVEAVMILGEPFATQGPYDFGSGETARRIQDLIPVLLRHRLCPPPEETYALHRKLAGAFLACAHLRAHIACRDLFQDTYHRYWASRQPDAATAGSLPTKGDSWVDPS

[2] = target: T2, Mitogen-activated protein kinase kinase kinase 2 (Homo sapiens) (UniProt Q9Y2U5); assay: Selectivity interaction (Kinase panel (KiNativ target engagement assay in Jurkat cells)) EUB0001635a MAP3K2; type: cell-based; settings: at 1 µM
T2 sequence (whole entry): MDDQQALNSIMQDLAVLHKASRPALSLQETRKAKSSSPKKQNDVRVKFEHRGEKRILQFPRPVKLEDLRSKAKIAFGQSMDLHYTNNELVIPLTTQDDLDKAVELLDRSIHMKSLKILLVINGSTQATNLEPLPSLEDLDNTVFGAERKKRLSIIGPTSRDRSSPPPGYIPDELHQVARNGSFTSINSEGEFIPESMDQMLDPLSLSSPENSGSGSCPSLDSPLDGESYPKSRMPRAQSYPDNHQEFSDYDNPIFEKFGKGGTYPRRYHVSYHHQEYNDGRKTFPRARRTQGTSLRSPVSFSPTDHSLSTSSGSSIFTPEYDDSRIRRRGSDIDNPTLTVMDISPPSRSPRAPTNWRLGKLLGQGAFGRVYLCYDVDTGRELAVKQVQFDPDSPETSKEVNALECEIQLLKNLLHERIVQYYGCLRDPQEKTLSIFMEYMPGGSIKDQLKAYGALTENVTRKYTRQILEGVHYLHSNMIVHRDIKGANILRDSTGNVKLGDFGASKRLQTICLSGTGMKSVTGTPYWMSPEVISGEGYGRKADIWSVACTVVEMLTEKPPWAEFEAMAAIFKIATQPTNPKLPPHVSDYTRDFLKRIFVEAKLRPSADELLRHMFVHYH

[3] = target: Rho-associated protein kinase 2 (Homo sapiens, UniProt O75116); assay: Selectivity interaction (KinomeScan (DiscoverX)) EUB0001049a ROCK2; settings: at 1 µM
[4] = target: T3, Mitogen-activated protein kinase kinase kinase 19 (Homo sapiens) (UniProt Q56UN5); assay: Selectivity interaction (KinomeScan (DiscoverX)) EUB0000695a MAP3K19; settings: at 100 nM
T3 sequence (whole entry): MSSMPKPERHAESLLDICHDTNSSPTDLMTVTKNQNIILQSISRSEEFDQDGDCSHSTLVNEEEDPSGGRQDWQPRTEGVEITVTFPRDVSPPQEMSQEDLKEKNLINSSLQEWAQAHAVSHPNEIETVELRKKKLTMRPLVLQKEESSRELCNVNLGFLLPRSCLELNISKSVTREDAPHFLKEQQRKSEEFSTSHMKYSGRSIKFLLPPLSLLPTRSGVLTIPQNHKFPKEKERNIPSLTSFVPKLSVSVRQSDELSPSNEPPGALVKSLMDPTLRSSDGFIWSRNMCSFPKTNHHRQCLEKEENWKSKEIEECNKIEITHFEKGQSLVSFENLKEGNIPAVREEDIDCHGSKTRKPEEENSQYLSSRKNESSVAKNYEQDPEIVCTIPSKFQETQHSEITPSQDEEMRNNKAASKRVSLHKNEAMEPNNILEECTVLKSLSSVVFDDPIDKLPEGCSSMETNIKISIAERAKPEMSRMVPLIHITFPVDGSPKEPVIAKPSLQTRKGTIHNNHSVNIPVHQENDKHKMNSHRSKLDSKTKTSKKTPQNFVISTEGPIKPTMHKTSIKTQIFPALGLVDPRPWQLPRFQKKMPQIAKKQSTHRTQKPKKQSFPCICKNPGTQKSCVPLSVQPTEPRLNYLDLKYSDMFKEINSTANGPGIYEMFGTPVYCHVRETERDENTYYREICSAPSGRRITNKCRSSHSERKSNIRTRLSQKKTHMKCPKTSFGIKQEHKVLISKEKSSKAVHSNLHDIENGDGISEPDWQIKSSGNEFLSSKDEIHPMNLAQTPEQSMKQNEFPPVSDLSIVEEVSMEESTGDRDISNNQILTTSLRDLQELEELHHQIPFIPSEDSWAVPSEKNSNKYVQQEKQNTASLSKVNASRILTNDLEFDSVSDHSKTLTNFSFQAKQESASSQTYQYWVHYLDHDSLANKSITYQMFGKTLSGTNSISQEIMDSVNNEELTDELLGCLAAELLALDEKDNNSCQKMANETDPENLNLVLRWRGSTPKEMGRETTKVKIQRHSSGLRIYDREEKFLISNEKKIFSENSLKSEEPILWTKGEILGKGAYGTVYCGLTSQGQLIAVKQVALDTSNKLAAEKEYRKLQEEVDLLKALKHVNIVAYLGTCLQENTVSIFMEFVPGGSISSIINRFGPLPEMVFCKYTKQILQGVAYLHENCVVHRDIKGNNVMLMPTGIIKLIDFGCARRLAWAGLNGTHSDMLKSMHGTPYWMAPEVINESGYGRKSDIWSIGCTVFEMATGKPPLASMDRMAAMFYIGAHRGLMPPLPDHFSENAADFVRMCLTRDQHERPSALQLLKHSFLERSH

[5] = target: Misshapen-like kinase 1 (Homo sapiens, UniProt Q8N4C8); assay: Selectivity interaction (ActivX KiNativ screen (ex vivo kinase selectivity in human PBMCs)) EUB0001619a MINK1; type: cell-based; settings: PBMC, at 1 µM
Misshapen-like kinase 1, sequence (Q8N4C8 whole entry, looked up): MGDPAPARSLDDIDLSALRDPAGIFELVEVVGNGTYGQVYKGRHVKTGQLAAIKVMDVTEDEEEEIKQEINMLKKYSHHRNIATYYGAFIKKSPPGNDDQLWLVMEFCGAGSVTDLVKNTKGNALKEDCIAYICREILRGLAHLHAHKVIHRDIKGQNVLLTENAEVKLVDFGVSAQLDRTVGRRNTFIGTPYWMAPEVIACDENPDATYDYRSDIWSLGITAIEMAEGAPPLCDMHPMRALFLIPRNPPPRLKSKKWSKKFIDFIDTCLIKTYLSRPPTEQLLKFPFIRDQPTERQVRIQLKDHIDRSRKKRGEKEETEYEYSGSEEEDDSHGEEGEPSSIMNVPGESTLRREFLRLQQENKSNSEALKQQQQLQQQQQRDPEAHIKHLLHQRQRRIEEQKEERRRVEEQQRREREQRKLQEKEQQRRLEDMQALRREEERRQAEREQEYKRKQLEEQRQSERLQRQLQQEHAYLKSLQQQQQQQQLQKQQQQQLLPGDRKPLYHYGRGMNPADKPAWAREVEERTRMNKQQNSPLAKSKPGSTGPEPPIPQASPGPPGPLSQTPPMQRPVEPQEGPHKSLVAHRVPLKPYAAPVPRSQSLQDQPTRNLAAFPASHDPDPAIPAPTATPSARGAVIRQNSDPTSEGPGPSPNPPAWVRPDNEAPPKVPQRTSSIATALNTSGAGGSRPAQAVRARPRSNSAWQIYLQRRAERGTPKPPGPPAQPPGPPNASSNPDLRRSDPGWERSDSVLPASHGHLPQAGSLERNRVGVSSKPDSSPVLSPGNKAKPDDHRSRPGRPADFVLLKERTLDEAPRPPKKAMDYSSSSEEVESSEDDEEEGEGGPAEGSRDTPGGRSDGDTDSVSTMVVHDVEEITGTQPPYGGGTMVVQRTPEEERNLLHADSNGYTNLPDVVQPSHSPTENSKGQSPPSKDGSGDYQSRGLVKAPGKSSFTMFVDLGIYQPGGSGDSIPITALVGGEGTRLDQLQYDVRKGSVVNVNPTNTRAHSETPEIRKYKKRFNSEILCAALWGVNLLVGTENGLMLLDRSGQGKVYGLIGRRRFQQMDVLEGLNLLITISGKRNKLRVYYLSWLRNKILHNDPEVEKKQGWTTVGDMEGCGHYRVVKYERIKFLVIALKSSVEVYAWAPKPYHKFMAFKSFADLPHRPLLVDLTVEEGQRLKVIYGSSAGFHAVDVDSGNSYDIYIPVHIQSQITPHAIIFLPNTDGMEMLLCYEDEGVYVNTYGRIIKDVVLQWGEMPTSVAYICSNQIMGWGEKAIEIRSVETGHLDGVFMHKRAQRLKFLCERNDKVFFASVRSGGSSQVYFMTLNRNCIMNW

Rho-associated protein kinase 2, sequence (O75116 whole entry, looked up): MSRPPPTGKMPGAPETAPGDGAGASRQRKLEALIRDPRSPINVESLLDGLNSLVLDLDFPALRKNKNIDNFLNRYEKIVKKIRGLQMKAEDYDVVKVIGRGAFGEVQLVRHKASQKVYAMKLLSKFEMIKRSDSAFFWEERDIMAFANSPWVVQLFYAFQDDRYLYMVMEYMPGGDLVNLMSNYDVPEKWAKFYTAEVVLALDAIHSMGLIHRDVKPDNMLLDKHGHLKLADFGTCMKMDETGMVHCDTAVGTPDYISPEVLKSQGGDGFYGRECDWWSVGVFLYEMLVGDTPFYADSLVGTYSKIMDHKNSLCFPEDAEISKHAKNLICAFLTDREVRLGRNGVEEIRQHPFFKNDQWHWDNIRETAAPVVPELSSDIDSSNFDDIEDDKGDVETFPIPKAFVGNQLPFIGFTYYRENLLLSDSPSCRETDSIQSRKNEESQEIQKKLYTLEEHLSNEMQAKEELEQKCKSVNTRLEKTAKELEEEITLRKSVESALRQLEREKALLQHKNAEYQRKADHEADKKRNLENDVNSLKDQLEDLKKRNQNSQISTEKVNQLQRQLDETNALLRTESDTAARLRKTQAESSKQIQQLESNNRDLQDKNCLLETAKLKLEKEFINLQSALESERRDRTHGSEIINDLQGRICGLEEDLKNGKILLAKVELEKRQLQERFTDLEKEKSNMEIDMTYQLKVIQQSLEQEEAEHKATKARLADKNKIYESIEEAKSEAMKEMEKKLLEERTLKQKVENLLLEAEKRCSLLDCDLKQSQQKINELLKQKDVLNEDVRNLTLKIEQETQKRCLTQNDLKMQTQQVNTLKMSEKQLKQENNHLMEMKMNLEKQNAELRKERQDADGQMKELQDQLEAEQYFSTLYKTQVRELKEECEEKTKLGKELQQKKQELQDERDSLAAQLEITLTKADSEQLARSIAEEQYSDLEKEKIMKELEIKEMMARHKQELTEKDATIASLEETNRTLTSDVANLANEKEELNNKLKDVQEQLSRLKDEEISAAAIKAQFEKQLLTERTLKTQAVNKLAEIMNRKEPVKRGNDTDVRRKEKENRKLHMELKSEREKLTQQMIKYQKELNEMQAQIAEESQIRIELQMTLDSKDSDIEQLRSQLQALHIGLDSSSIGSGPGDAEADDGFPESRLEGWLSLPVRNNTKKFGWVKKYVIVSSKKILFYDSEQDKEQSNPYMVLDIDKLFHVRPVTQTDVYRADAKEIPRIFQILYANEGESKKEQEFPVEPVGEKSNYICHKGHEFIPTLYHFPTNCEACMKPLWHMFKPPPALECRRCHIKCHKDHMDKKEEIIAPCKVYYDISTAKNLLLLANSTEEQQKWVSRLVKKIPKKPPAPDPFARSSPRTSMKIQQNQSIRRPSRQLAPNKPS

## Nc1cnc(N2CCc3cc(S(=O)(=O)Nc4c(F)cc(Cl)cc4F)cc(N4CCCC4=O)c32)nc1 [TP-020n]
[1]
  % of control: 100%

## C=CC(=O)Nc1ccc(C(=O)Nc2[nH]nc3c2CN(C(=O)N[C@H](CN(C)C)c2ccccc2)C3(C)C)cc1
[2]; Selectivity number of off-targets 0.0, Selectivity number of targets 233.0, Source Knowledge https://www.sciencedirect.com/science/article/pii/S2451945619300674?via%3Dihub
  % of engagement: -1.5%
[2]
  % of engagement: -1.9%

## COc1cc(Nc2nc(C)cc(-c3cnn4nc(OC)ccc34)n2)cc(C(F)(F)F)c1
[3]
  % of control: 100%

## Cc1cc(F)c(C(=O)Nc2cccc(-c3nncn3C(C)C)n2)cc1-n1cnc(C2CC2)c1
[4]
  % of control: 57%

## N#Cc1cccc(-c2c[nH]c3ncnc(N4CCOCC4)c23)c1
[5]
  % of inhibition: 15%
